In patent publication US7425562B2, “Inhibitors of cruzipain and other cysteine proteases” (Amura Therapeutics Ltd., priority 2001, dated 2008):

Key:
Assay type in all cases: biochemical
Human Cathepsin K = biological target: T1, Human Cathepsin K (Homo sapiens, UniProt P43235); assay: Cathepsin peptidase activity assay, human cathepsin K (Ki); details: pH 5.5, 25±1° C
T1 construct: Dr. Boris Turk (Josef Stefan Institute, Ljubljana, Slovenia)
T1 sequence (P43235 115-329): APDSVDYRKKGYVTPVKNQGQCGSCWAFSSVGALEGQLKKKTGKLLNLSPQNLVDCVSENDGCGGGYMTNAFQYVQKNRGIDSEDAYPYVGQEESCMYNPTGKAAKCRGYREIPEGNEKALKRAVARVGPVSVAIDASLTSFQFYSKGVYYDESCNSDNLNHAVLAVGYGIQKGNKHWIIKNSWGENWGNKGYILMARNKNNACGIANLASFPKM
Protocol: (§1) Assay protocols were based on literature precedent (Tablel; Barrett, A. J., Rawlings, N. D. and Woessner, J. F., 1998, Handbook of Proteolytic Enzymes, Academic Press, London and references therein) and modified as required to suit local assay protocols. Enzyme was added as required to initiate the reaction and the activity, as judged by the change in fluorescence upon conversion of substrate to product, was monitored over time. All assays were carried out at 25±1° C.
(§2) Bovine cathepsin S, human cathepsin L, human cathepsin H and human cathepsin B were obtained from CN Biosciences. Recombinant human cathepsin S, human cathepsin K and human cathepsin X were obtained from Dr. Boris Turk (Josef Stefan Institute, Ljubljana, Slovenia). Unless otherwise stated, all peptidase activity assays were carried out in 10 mM bis-tris-propane (BTP), pH 6.5 containing 1 mM EDTA, 5 mM 2-mercaptoethanol and 1 mM CaCl2. Human cathepsin H activity assays were carried out in 10 mM BTP pH 6.5, 142 mM […], 1 mM CaCl2, 1 mM EDTA, 1 mM DTT, 0.035 mM Zwittergent 3-16. Human cathepsin K assays were carried out in 100 mM sodium acetate; pH 5.5 containing 20 mM L-cysteine and 1 mM EDTA (Bossard, M. J., et. al., J. Biol. Chem., 21, 12517-12524, 1996). Human cathepsin X assays were carried out in 100 mM sodium acetate; pH 5.5 containing 20 mM L-cysteine; 0.05% (w/v) Brij 35 and 1 mM EDTA (Santamaria, I., et. al., J. Biol. Chem., 273, 16816-16823, 1998; Klemencic, J, et al., Eur. J. Biochem., 267, 5404-5412, 2000). […] The rate of conversion of substrate to product was derived from the slope of the increase in fluorescence monitored continuously over time.
(§3) The apparent inhibition constant (Ki) for each compound was determined on the basis that inhibition was reversible and occurred by a pure-competitive mechanism. The Ki values were calculated, from the dependence of enzyme activity as a function of inhibitor concentration, by direct regression analysis (Prism v 3.02) using Equation 2 (Cornish-Bowden, A., 1995.).
(§4) In situations where the apparent dissociation constant (Ki^app) approached the enzyme concentrations, the Ki^app values were calculated using a quadratic solution in the form described by Equation 3 (Morrison, J. F. Trends Biochem. Sci., 7, 102-105, 1982; Morrison, J. F. Biochim. Biophys. Acta, 185, 269-286, 1969; Stone, S. R. and Hofsteenge, J. Biochemistry, 25, 4622-4628, 1986).

Bovine Cathepsin S = biological target: T2, Bovine Cathepsin S (Bos taurus, UniProt P25326); assay: Cathepsin peptidase activity assay, bovine cathepsin S (Ki); details: boc-Val-Leu-Lys-AMC, pH 6.5, 25±1° C
T2 construct: purchased CN Biosciences
T2 sequence (P25326 115-331): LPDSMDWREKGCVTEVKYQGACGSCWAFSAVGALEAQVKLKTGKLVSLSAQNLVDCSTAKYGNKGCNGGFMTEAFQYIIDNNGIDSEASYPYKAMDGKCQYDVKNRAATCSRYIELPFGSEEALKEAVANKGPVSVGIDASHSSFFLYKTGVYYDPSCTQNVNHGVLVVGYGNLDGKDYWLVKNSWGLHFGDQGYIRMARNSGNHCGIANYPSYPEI
Protocol: as §1, §2, §3, §4

Human Cathepsin L = biological target: T3, Human Cathepsin L (Homo sapiens, UniProt P07711); assay: Cathepsin peptidase activity assay, human cathepsin L (Ki); details: Ac-Phe-Arg-AMC, pH 6.5, 25±1° C
T3 construct: purchased CN Biosciences
T3 sequence (P07711 114-333): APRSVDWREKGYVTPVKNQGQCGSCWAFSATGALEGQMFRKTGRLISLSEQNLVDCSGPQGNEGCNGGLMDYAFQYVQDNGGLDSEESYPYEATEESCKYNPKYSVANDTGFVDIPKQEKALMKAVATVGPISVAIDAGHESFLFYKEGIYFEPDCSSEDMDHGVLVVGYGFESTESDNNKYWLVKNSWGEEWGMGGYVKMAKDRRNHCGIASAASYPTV
Protocol: as §1, §2, §3, §4

Cruzipain = biological target: T4, Cruzipain (Trypanosoma cruzi, UniProt P25779); assay: Trypanosoma cruzi cruzipain peptidase activity assay (Ki); details: wild-type cruzipain from Trypanosoma cruzi Dm28 epimastigotes, pH 6.75, 25±1° C
T4 construct: Wild-type cruzipain, derived from Trypanosoma cruzi Dm28 epimastigotes; tissue Dr. Julio Scharfstein (Instituto de Biofisica Carlos Chagas Filho); host or cells: Trypanosoma cruzi Dm28 epimastigotes
T4 sequence (P25779 123-467): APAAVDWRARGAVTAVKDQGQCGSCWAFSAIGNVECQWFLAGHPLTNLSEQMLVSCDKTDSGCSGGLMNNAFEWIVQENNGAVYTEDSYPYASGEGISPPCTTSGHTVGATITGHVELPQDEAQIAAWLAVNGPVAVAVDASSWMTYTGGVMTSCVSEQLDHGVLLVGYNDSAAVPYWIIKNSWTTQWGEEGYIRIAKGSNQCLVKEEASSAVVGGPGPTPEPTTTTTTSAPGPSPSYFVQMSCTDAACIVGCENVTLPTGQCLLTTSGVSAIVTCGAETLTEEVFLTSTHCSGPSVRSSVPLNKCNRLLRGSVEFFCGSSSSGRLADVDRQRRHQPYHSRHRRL
Protocol: as §1
Wild-type cruzipain, derived from Trypanosoma cruzi Dm28 epimastigotes, was obtained from Dr. Julio Scharfstein (Instituto de Biofisica Carlos Chagas Filho, Universidade Federal do R^10 de Janeiro, R^10 de Janeiro, Brazil). Activity assays were carried out in 100 mM sodium phosphate, pH 6.75 containing 1 mM EDTA and 10 mM Loysteine using 2.5 nM enzyme. Ac-Phe-Arg-AMC (KM^app≈12 μM) and D-Val-Leu-Lys-AMC (KM^app≈4 μM) were used as the substrates. Routinely, Ac-FR-AMC was used at a concentration equivalent to KM^app and D-Val-Leu-Lys-AMC was used at a concentration of 25 μM. The rate of conversion of substrate to product was derived from the slope of the increase in fluorescence monitored continuously over time.
as §3, §4

| Compound | Ki (Human Cathepsin K) | Ki (Bovine Cathepsin S) | Ki (Human Cathepsin L) | Ki (Cruzipain) |
| --- | --- | --- | --- | --- |
| CC(C)C[C@H](NC(=O)c1ccc(Oc2ccccc2)cc1)C(=O)N1CC[C@H]2OCC(=O)[C@H]21 [Example 10, (3aS, 6aR) N-[3-methyl-1S-(3-oxo-hexahydrofuro[3,2-b]pyrrole-4-carbonyl)butyl]-4-phenoxybenzamide] | 0.1 µM | > 10 µM | > 25 µM | > 5 µM |
| O=C(N[C@@H](CSCc1ccccc1)C(=O)N1CC[C@H]2OCC(=O)[C@H]21)c1ccoc1 [Example 48, (3aS, 6aR) Furan-3-carboxylic Acid [1R-benzylsulfanylmethyl-2-oxo-2-(3-oxo-hexahydrofuro[3,2-b]pyrrol-4-yl)ethyl]amide] | > 10 µM | 0.3 µM | > 100 µM | > 25 µM |
| O=C(N[C@@H](Cc1ccc(O)cc1)C(=O)N1CC[C@H]2OCC(=O)[C@H]21)c1cccc2ccccc12 [Example 69, (3aS, 6aR) Naphthalene-1-carboxylic Acid [1S-(4-hydroxybenzyl)-2-oxo-2-(3-oxo-hexahydrofuro[3,2-b]pyrrol-4-yl)ethyl]amide] | > 100 µM | > 10 µM | 0.8 µM | > 5 µM |
| CC(C)(C)c1ccc(C(=O)N[C@@H](Cc2ccc(O)cc2)C(=O)N2CC[C@H]3OCC(=O)[C@H]32)cc1 [Example 3, (3aS, 6aR) 4-tert-Butyl-N-[1S-(4-hydroxybenzyl)-2-oxo-2-(3-oxo-hexahydrofuro[3,2-b]pyrrol-4-yl)ethyl]benzamide] | > 5 µM | > 100 µM | > 35 µM | 0.2 µM |
